Test results taken from patent US20170304369A1, “METHODS OF DIFFERENTIATING STEM CELLS INTO LIVER CELL LINEAGES” (Agency for Science, Technology and Research, priority 2014, published 2017).
Entries after “also recorded” stand apart in the source; their conditions may differ. Where two headings read alike, the source gives them in different places. One block for each molecule: values may come before it.

Experiments:
adult human hepatocytes = experiment: Adult human primary hepatocytes in vitro culture, liver gene expression after 2 days; type: cell-based
From the text: RNA was extracted using Zymo RNA extraction kit. RT-quantitative PCR was used to quantify gene expression. […]
The signals that promote hepatocyte specification and/or maturation were considered to also ameliorate such loss of liver maturity and gene expression during in vitro culture. Thus, the signaling pathways that appear to be dysregulated were investigated including Notch, TGFb, Wnt, as well as other major signaling pathways including estrogen, BMP, FGF, PKA/cAMP pathways, in order to determine the effects on liver genes after 2 days.

PFG cells = experiment: Liver bud (LB) specification from posterior foregut, days 4-6, gene expression; type: cell-based, human; conditions: for subsequent expression of ALB: treatment during LB specification, then hepatic specification medium; for LB gene expression / expansion: addition at the LB specification stage
Description: (§1) mTeSR1-grown hPSCs were cultured and differentiated as follows: • a) hPSCs cells were seeded at 1:12 as small clumps using Accutase (Millipore, Cat#SCR005) and Geltrex (Lifetech, Cat#A1413302). • b) Anterior Primitive Streak (day 1) was specified using Activin A (100 ng/ml), CHIR99021 (3 μM), PI-103 (50 nM) and Fgf2 (10 ng/ml) in serumless CDM2 basal medium for 24 hr. • c) Activin A (100 ng/ml) and DM3189 (250 nM) and PI-103 (50 nM) were added in the same basal medium for 24 hr to induce Definitive Endoderm (DE) (day 2). • d) DE was then patterned into PFG by using A83-01 (1 μM), RA (2 μM), BMP4 (30 ng/ml) and Fgf2 (10 ng/ml) in CDM KOSR basal media for another 24 hrs. • e) PFG was further differentiated to LB progenitors using Activin A (100 ng/ml), 8-bromo-CAMP (1 mM) and BMP4 (10 ng/ml) in CDM KOSR basal media for 3 days (day 4 to 6). • f) LB progenitors were treated with BMP4 (10 ng/ml), Oncostatin M (10 ng/ml), Dexamethasone ([…]), DAPT, C59 (1 μM) or RO4919097 (2 μM), forskolin ([…]), human recombinant insulin (10 μg/ml), ascorbic acid-2 phosphate (200 μg/ml), L-gluthathione ([…]) and amino acid concentrate and in IMDM/F12 media for the next 6 days (day 7 to 12) to induce hepatic progenitors. • g) Hepatic progenitors were treated with Dexamethasone (10 μM), RO4929097 (2 μM) or DAPT (10 μM), Forskolin (10 μM), human recombinant insulin (10 μg/ml), ascorbic acid-2 phosphate (200 μg/ml) in IMDM/F12 media for 6 days (day 13 to 18) to generate hepatocyte-like cells. Intra-Splenic Transplantation into FRG^−/− Mice
(§2) RNA was extracted using Zymo RNA extraction kit. RT-quantitative PCR was used to quantify gene expression. Primer sequences were designed by NCBI Primer Tool and primer specificity and linearity was tested before usage for gene expression analyses.
The signaling pathways, including Retinoic, Nodal/Activin, Bmp, PKA, FGF and Wnt signaling, were explored to determine if they could directly regulate LB specification.

hPSC-derived LB cells = experiment: Hepatic progenitor specification from hPSC-derived LB cells (days 7-12), liver gene expression; conditions: for subsequent expression of liver genes: brief treatment of LB cells for 2 days
Description: as §1, §2
To identify the signals that regulate the progression of the LB progenitors from an ALB- to a more differentiated ALB+ state, multiple signaling pathways were systematically screened for their effects on ALB expression (including FGF, WNT, Notch, HGF, cAMP/PKA, TGFβ, and BMP).

hepatic progenitors = experiment: Treatment of hepatic progenitors (days 13-18), hepatocyte-like cell, periportal versus perivenous gene expression; type: cell-based, human
hPSC-derived DE = experiment: Foregut specification: treatment of hPSC-derived DE (day 3), downstream gene expression by RT-qPCR; type: cell-based, human
From the text: RT-quantitative PCR was used to quantify gene expression. […] During liver development, populations of definitive endoderm cells are first patterned along the anterior-posterior axis to form either the foregut or mid/hindgut. In the present invention the effects of signaling inhibition on the developmental competence of the foregut cells to give rise to the liver bud (LB) cells was examined. Competence is defined as the capacity of one stem cell or progenitor cell to differentiate into its daughter cell type. For example, the posterior foregut is competent when it could give rise to its daughter cell types such as the pancreatic endoderm and LB cells.

[1] = on removal of the component from a cocktail of signaling factors
[2] = subtraction from BCDEFV cocktail, day 10
[3] = 24 h during foregut specification

perivenous gene expression (e.g. members of the CYP1, CYP2 and CYP3 families) (adult human hepatocytes): reducing | expression of functional liver enzymes such as FAH, PAH, HGD, HPD, TAT, CPS1, CYP3A4 (hPSC-derived LB cells; days 9-12): enhances
Molecule: Nc1ncnc2c1nc(Br)n2[C@@H]1O[C@@H]2COP(=O)(O)O[C@H]2[C@H]1O [8-bromoCAMP]
periportal gene expression (adult human hepatocytes): promote | expression of cytochrome genes (adult human hepatocytes; [1]): increased | expression of LB markers including AFP, CEBPA, HNF6, HNF1B, PROX1, TBX3 and HNF4A (PFG cells; during LB specification): significantly increase | hepatic progenitor marker ALB expression (hPSC-derived LB cells; days 9-12): promotes

expression of CYP3A5, CYP3A7, CYP3A4, CYP2D1, CYP2E1, and CYP1A1 (hepatic progenitors): enhance
Molecule: CC1=C(/C=C/C(C)=C\C=C\C(C)=C\C(=O)O)C(C)(C)CCC1 [9-Cis-RA, 3,7-Dimethyl-9-(2,6,6-trimethyl-1-cyclohexen-1-yl)nona-2E,4E,6Z,8E-tetraenoic acid]
expression of periportal genes such as ARG1, OTC, ASL1 and CPS1 (hepatic progenitors): reduces

Molecule: CC(=N)NCc1cccc(CN)c1.Cl.Cl [1400 W dihydrochloride, N-[[3-(Aminomethyl)phenyl]methyl]-ethanimidamide dihydrochloride]
expression of FAH, PAH, HGD, TAT, CPS1, ARG1, FBA, FBB and FBG (hepatic progenitors; PKG antagonists): upregulate

Molecule: Cc1cccc(-c2nn(C(=S)Nc3ccccc3)cc2-c2ccnc3ccccc23)n1 [A83-01, 3-(6-Methyl-2-pyridinyl)-N-phenyl-4-(4-quinolinyl)-1H-pyrazole-1-carbothioamide]
expression of CYP1A1, CYP1A2, CYP2C19, CYP2C9, CYP3A4, CYP3A5, CYP3A7 and CYP7A1 (adult human hepatocytes; TGFβ inhibition): increased | subsequent expression of ALB (PFG cells): reduces

expression of PAH, HGD, HPD, TAT, MAI, FAH, CYP3A4, ALB and CPS1 (hPSC-derived LB cells): enhancement
Molecule: O=C1O[C@H]([C@@H](O)CO)C(O)=C1OP(=O)(O)O [AA2P, L-ascorbic acid 2-phosphate]
liver maturation (hPSC-derived LB cells; days 7 to 12 and days 13 to 16): significantly promoted

Molecule: c1ccc2c(-c3cnn4cc(-c5ccc(N6CCNCC6)cc5)cnc34)ccnc2c1 [BM3189]
ALB expression (hPSC-derived LB cells; added to hPSC-derived LB cells): decreased

Molecule: Cc1cnc(-c2cnc(NCCNc3ccc(C#N)cn3)nc2-c2ccc(Cl)cc2Cl)[nH]1 [CHIR99201, 6-[[2-[[4-(2,4-dichlorophenyl)-5-(5-methyl-1H-imidazol-2-yl)-2pyrimidinyl]amino]ethyl]amino]-3-pyridinecarbonitrile]
GLT and GS expression (adult human hepatocytes; [1]): decrease | expression of periportal genes like ARG1, SERDH, CPS1 (adult human hepatocytes; [1]): increased | expansion and self-renewal of LB progenitors (PFG cells): enhance | LB gene expression (PFG cells): higher | expansion (PFG cells): promotes | ALB expression (hPSC-derived LB cells; [2]): inhibits

expression of the majority of cytochrome enzymes (CYP1A1, CYP1A2, CYP2C19, CYP2C9, CYP2D6, CYP2E1, CYP3A4, CYP3A5, CYP3A7, CYP7A1) (adult human hepatocytes): upregulated
Molecule: C[C@H](NC(=O)Cc1cc(F)cc(F)c1)C(=O)NC(C(=O)OC(C)(C)C)c1ccccc1 (some centres unmarked) [DAPT]
SOX9 expression (hPSC-derived LB cells; Notch inhibition): reducing | ALB expression (hPSC-derived LB cells; added to hPSC-derived LB cells): enhance

expression of functional liver enzymes such as FAH, PAH, HGD, HPD, TAT, CPS1, CYP3A4 (hPSC-derived LB cells): enhances
Molecule: C=C[C@@]1(C)CC(=O)[C@]2(O)[C@@]3(C)[C@@H](O)CCC(C)(C)[C@@H]3[C@H](O)[C@H](OC(C)=O)[C@@]2(C)O1 [Forskolin]

Molecule: CC(=O)Nc1cccc(-n2c(=O)n(C3CC3)c(=O)c3c(Nc4ccc(I)cc4F)n(C)c(=O)c(C)c32)c1 [GSK1120212]
subsequent expression of liver genes (hPSC-derived LB cells): higher

Molecule: Cc1ccc2nc(NC(=O)CSc3nc4c(c(=O)n3-c3ccccc3)SCC4)sc2c1 [IWP2, N-(6-Methyl-2-benzothiazolyl)-2-[(3,4,6,7-tetrahydro-4-oxo-3-phenylthieno[3,2-d]pyrimidin-2-yl)thio]-acetamide]
downstream LB gene expression (AFP, CEBPA, TBX3, HNF1B) (hPSC-derived DE; [3]): severely reduces | expression of MHG markers CDX2 and EVX1 (hPSC-derived DE; [3]): reduces | HNF6, PROX1 and HEX expression (hPSC-derived DE; Wnt inhibition during foregut specification): upregulated

Molecule: CCN(CC)CCCCNc1ncc2cc(-c3cc(OC)cc(OC)c3)c(NC(=O)NC(C)(C)C)nc2n1 [PD173074, N-[2-[[4-(Diethylamino)butyl]amino]-6-(3,5-dimethoxyphenyl)pyrido[2,3-d]pyrimidin-7-yl]-N′-(1,1-dimethylethyl)urea]
subsequent expression of liver genes (hPSC-derived LB cells): higher

Molecule: O=C(NOC[C@H](O)CO)c1ccc(F)c(F)c1Nc1ccc(I)cc1F [PD0325901, N-[(2R)-2,3-Dihydroxypropoxy]-3,4-difluoro-2-[(2-fluoro-4-iodophenyl)amino]-benzamide]
LB gene expression (HNF1A, HNF6, PROX1, TBX3, HNF4A) (PFG cells; inhibition of FGF/MAPK signaling): reduced

expression of the majority of cytochrome enzymes (CYP1A1, CYP1A2, CYP2C19, CYP2C9, CYP2D6, CYP2E1, CYP3A4, CYP3A5, CYP3A7, CYP7A1) (adult human hepatocytes): upregulated
Molecule: CC(C)(C(=O)NCC(F)(F)C(F)(F)F)C(=O)N[C@@H]1C(=O)Nc2ccccc2-c2ccccc21 [R04929097, Propanediamide, N1-[(7S)-6,7-dihydro-6-oxo-5H-dibenz[b,d]azepin-7-yl]-2,2-dimethyl-N3-(2,2,3,3,3-pentafluoropropyl)-]
SOX9 expression (hPSC-derived LB cells; Notch inhibition): reducing | ALB expression (hPSC-derived LB cells; added to hPSC-derived LB cells): enhance

Molecule: Nc1ncnc2c1ncn2[C@@H]1O[C@@H]2CO[P@@](O)(=S)O[C@H]2[C@H]1O [RpCAMP]
p450 cytochrome expression (adult human hepatocytes): promoted

expression of CYP1A1, CYP1A2, CYP2C19, CYP2C9, CYP3A4, CYP3A5, CYP3A7 and CYP7A1 (adult human hepatocytes): increased | competence of hepatic progenitors to generate hepatocyte-like cells (hPSC-derived LB cells): reduces | expression of liver genes such as ALB, CYP3A4, CPS1, FAH, TAT, PAH, HGD, HPD and MAI (hPSC-derived LB cells): lower
Molecule: Cc1cccc(-c2[nH]c(C(C)(C)C)nc2-c2ccc3c(c2)OCO3)n1 [SB505124, 2-[4-(1,3-Benzodioxol-5-yl)-2-(1,1-dimethylethyl)-1H-imidazol-5-yl]-6-methyl-pyridine]
effect on the cytochrome expression compared with A83-01 (adult human hepatocytes): stronger | subsequent expression of ALB (PFG cells): reduces | later functional liver gene expression of TAT, FAH, PAH, HGD, HPD, and MAI (hPSC-derived LB cells; brief treatment on days 7-8): higher

Molecule: C[N+](C)(C)CCO.[Cl-] [choline chloride]
expression of ALB, FAH, PAH, TAT, CYP3A4, CYP3A7, AAT, THR, FBA, FBB, FBG and TBX3 (hPSC-derived LB cells; higher levels of phospholipid precursor): increases

Molecule: Nc1ncnc2c1ncn2[C@@H]1O[C@@H]2COP(O)(=S)O[C@H]2[C@H]1O (some centres unmarked) [spCAMP]
periportal gene expression (adult human hepatocytes): promote | perivenous gene expression (e.g. members of the CYP1, CYP2 and CYP3 families) (adult human hepatocytes): reducing

Molecule: FGF2: activator of FGF signaling
expansion and self-renewal of LB progenitors (PFG cells): enhance | LB gene expression of HNF1A, HNF6, PROX1, TBX3, HNF4A, AFP, CEBPA, HNF1B (PFG cells; addition in CDM KOSR base media): did not benefit | ALB expression (hPSC-derived LB cells; 20 ng/ml): reduction | SOX9 expression (hPSC-derived LB cells; 20 ng/ml): slightly increase | ALB expression (hPSC-derived LB cells; [2]): inhibits | subsequent liver bud gene expression of CEBPA, HNF1A, HNF6, PROX1 (hPSC-derived DE; provided to DE cells during foregut specification): increase

Molecule: HGF: Hepatocyte growth factor
ALB expression (hPSC-derived LB cells; added to hPSC-derived LB cells): promotes

perivenous xenobiotic gene expression (e.g. CYP3A4, CYP3A5 and CYP3A7) (adult human hepatocytes): increased
Molecule: Wnt3A
LB gene expression (PFG cells): higher | expansion (PFG cells): promotes

B1: OSM: Oncostatin M (protein, UniProt P13725 26-221, looked up)
Oncostatin-M: AAIGSCSKEYRVLLGQLQKQTDLMQDTSRLLDPYIRIQGLDVPKLREHCRERPGAFPSEETLRGLGRRGFLQTLNATLGCVLHRLADLEQRLPKAQDLERSGLNIEDLEKLQMARPNILGLRNNIYCMAQLLDNSDTAEPTKAGRGASQPPTPTPASDAFQRKLEGCRFLHGYHRFMHSVGRVFSKWGESPNRSRR
ALB expression (hPSC-derived LB cells; added to hPSC-derived LB cells): promoted

B2: BMP4: activator of BMP signaling (protein, UniProt P12644 293-408, looked up)
Bone morphogenetic protein 4: SPKHHSQRARKKNKNCRRHSLYVDFSDVGWNDWIVAPPGYQAFYCHGDCPFPLADHLNSTNHAIVQTLVNSVNSSIPKACCVPTELSAISMLYLDEYDKVVLKNYQEMVVEGCGCR
LB specification (PFG cells): promotes | dose that maximally induces expression of LB genes (HNF4A, PROX1, AFP, TBX3, HNF1B, HNF1A, HNF6, CEBPA) (PFG cells): 30 to 40 ng/mL | pancreatic specification (PFG cells): inhibited | ALB expression (hPSC-derived LB cells; added to hPSC-derived LB cells): promote; also recorded: increased | competence to generate LB cells (hPSC-derived DE; treatment during foregut specification): mildly enhanced
